This note sets out measurements from paper PMC11331127 (Proceedings of the National Academy of Sciences of the …, 2024).

Holding throughout (type): cell-based
The target in one test is Cx30 (Homo sapiens, UniProt O95452). The test is described as follows: dye uptake rate in Xenopus oocytes. Conditions: transport (dye permeation); resting membrane potential.
Test [1] addresses T1, Cx26 (Homo sapiens, UniProt P29033). Description: inhibition of DAPI uptake in Xenopus oocytes. Conditions: competitive versus DAPI; resting membrane potential.
The target of test [2] is Cx26 (Homo sapiens, UniProt P29033, INS2A). The test is described as follows: dye uptake rate in Xenopus oocytes. Conditions: transport (dye permeation); resting membrane potential.
The target of test [3] is T1, Cx26. The test is described as follows: dye uptake rate in Xenopus oocytes. Conditions: transport (dye permeation); resting membrane potential.

Chain of Cx30 (O95452 whole entry): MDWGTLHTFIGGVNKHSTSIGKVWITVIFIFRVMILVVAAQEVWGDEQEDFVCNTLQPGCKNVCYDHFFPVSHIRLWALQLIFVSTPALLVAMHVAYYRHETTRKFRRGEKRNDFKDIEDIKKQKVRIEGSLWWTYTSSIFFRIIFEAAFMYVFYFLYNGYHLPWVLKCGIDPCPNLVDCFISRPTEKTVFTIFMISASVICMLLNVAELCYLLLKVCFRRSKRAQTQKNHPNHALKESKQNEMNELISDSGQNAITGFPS

As usually defined, the Km is the substrate concentration at which the rate is half of its maximum. Broadly, the Ki is a dissociation constant, usually derived from enzyme kinetics or from competition with a known ligand. Higher therefore signals a looser hold on the target. Take ethidium: the Km came out at 6.6 ± 2 µM at Cx30 and 88.6 ± 17.4 µM at Cx26 [2]. Also, the Ki on Cx26 [1] was ~16.5 µM.
Turning to DAPI, the Km on Cx26 [3] came to 90.1 ± 22 µM.
